Measurements published in patent publication EP2140864A2 (H. Lundbeck A/S, priority 2001, dated 2002).

These compounds were tested against T1, human GAL3 receptor (Homo sapiens, UniProt O60755) (assay: Radioligand binding at cloned human GAL3 receptor). Conditions: indolones, cloned human receptor; read-out: Ki GalR3.
T1 construct: expressed in transfected cells
T1 sequence (O60755 1-368): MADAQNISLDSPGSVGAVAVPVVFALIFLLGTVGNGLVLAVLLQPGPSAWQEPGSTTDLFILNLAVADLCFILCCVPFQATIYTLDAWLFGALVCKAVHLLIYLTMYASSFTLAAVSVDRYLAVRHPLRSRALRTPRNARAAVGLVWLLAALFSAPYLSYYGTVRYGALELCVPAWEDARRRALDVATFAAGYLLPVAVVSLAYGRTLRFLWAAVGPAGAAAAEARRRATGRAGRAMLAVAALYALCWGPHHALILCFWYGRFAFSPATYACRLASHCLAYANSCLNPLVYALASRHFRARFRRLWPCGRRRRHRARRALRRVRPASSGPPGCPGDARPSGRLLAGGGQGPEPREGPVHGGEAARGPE
Outline: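 Compound vehicle, as final assay concentration, was 3% DMSO (indolones) or 1% ethanol/0.09% polypuronic acid F-127 (pyrimidines). Binding measured on fresh or frozen membranes of stably transfected LM(tk-) mouse fibroblasts carrying cloned human GAL3, in pH 7.4 HEPES buffer; values derived by nonlinear regression.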
`O=C1/C(=N\c2ccc(Cl)cc2)c2ccccc2N1c1ccsc1` [Example 261, (3Z)-3-[(4-CHLOROPHENYL)IMINO]-1-(3-THIENYL)-1,3-DIHYDRO-2H-INDOL-2-ONE] was tested, and the Ki was 34 nM.
`O=C1/C(=N\c2ccc(I)cc2)c2ccccc2N1c1ccsc1` [Example 262, (3Z)-3-[(4-IODOPHENYL)IMINO]-1-(3-THIENYL)-1,3-DIHYDRO-2H-INDOL-2-ONE] showed a Ki of 46 nM.
In the case of `Cc1ccc(/N=C2\C(=O)N(c3ccsc3)c3ccccc32)cc1` [Example 263], the Ki is reported as 136 nM.
With `O=C1/C(=N\c2cc(F)cc(F)c2)c2ccccc2N1c1ccsc1` [Example 264, (3Z)-3-[(3,5-DIFLUOROPHENYL)IMINO]-1-(3-THIENYL)-1,3-DIHYDRO-2H-INDOL-2-ONE] the Ki was 27 nM.
For `O=C1/C(=N\c2ccc(-c3ccccc3)cc2)c2ccccc2N1c1ccsc1` [Example 265, (3Z)-3-([1,1'-BIPHENYL]-4-YLIMINO)-1-(3-THIENYL)-1,3-DIHYDRO-2H-INDOL-2-ONE], the Ki was 80 nM.
`CCOC(=O)c1cccc(/N=C2\C(=O)N(c3ccsc3)c3ccccc32)c1` [Example 266, ETHYL 3-{[(3Z)-2-OXO-1-(3-THIENYL)-1,2-DIHYDRO-3H-INDOL-3-YLIDENE]AMINO}BENZOATE] showed a Ki of 236 nM.
`O=C1/C(=N\c2ccc(Cl)nc2)c2ccccc2N1c1ccsc1` [Example 267] was tested, and the Ki was 234 nM.
`O=C1/C(=N\c2ccc(Br)cc2)c2ccccc2N1c1ccsc1` [Example 269, (3Z)-3-[(4-BROMOPHENYL)IMINO]-1-(3-THIENYL)-1,3-DIHYDRO-2H-INDOL-2-ONE] gave a Ki of 46 nM.
With `O=C1/C(=N\c2cccc(Cl)c2)c2ccccc2N1c1ccsc1` [Example 270, (3Z)-3-[(3-CHLOROPHENYL)IMINO]-1-(3-THIENYL)-1,3-DIHYDRO-2H-INDOL-2-ONE] the Ki was 42 nM.
With `Cc1cccc(/N=C2\C(=O)N(c3ccsc3)c3ccccc32)c1` [Example 271] the Ki was 114 nM.
`O=C1/C(=N\c2cccc(C(F)(F)F)c2)c2ccccc2N1Cc1ccccn1` [Example 273] showed a Ki of 202 nM.
Work on `O=C1/C(=N\c2cc(Cl)cc(Cl)c2)c2ccccc2N1Cc1ccccn1` [Example 274] yielded a Ki of 174 nM.
For `Cc1noc(C)c1CN1C(=O)/C(=N\c2cccc(C(F)(F)F)c2)c2ccccc21` [Example 275], the Ki was 595 nM.
For `O=C1/C(=N\c2ccc(F)c(F)c2)c2ccccc2N1Cc1cccnc1` [Example 276], the Ki was 192 nM.
`O=C1/C(=N\c2cccc(C(F)(F)F)c2)c2ccccc2N1Cc1cccnc1` [Example 277] gave a Ki of 198 nM.
Compound `O=C1/C(=N\c2ccc(F)c(F)c2)c2ccccc2N1Cc1ccccn1` [Example 278] has a Ki of 340 nM.
For `O=C1/C(=N\c2cc(Cl)cc(Cl)c2)c2ccccc2N1Cc1cccnc1` [Example 279], the Ki was 81 nM.
Compound `Cc1noc(C)c1CN1C(=O)/C(=N\c2cc(Cl)cc(Cl)c2)c2ccccc21` [Example 280] has a Ki of 521 nM.
Work on `CCn1c2ccccc2c2cc(/N=C3\C(=O)N(c4ccccc4)c4ccccc43)ccc21` [Example 281, (3Z)-3-[(9-ETHYL-9H-CARBAZOL-3-YL)IMINO]-1-PHENYL-1,3-DIHYDRO-2H-INDOL-2-ONE] yielded a Ki of 150 nM.
`O=C1/C(=N\c2cccc3ncccc23)c2ccccc2N1c1ccccc1` [Example 282, (3Z)-1-PHENYL-3-(5-QUINOLINYLIMINO)-1,3-DIHYDRO-2H-INDOL-2-ONE] was tested, and the Ki was 333 nM.
In the case of `O=C1/C(=N\c2ccc(I)cc2)c2ccccc2N1c1ccccc1` [Example 283, (3Z)-3-[(4-IODOPHENYL)IMINO]-1-PHENYL-1,3-DIHYDRO-2H-INDOL-2-ONE], the Ki is reported as 33 nM.
`O=C1/C(=N\c2ccc(F)c(F)c2)c2ccccc2N1c1ccccc1` [Example 285, (3Z)-3-[(3,4-DIFLUOROPHENYL)IMINO]-1-PHENYL-1,3-DIHYDRO-2H-INDOL-2-ONE] showed a Ki of 26 nM.
For `COc1ccc(/N=C2\C(=O)N(c3ccccc3)c3ccccc32)c(OC)c1` [Example 287, (3Z)-3-[(2,4-DIMETHOXYPHENYL)IMINO]-1-PHENYL-1,3-DIHYDRO-2H-INDOL-2-ONE], the Ki was 260 nM.
With `N#Cc1cccc(/N=C2\C(=O)N(c3ccccc3)c3ccccc32)c1` [Example 288, 3-{[(3Z)-2-OXO-1-PHENYL-1,2-DIHYDRO-3H-INDOL-3-YLIDENE]AMINO}BENZONITRILE] the Ki was 39 nM.
For `Cc1ccc(C(F)(F)F)cc1/N=C1\C(=O)N(c2ccccc2)c2ccccc21` [Example 289, (3Z)-3-{[2-METHYL-5-(TRIFLUOROMETHYL)PHENYL]IMINO}-1-PHENYL-1,3-DIHYDRO-2H-INDOL-2-ONE], the Ki was 59 nM.
Compound `Cc1cc(N=C2C(=O)N(c3ccsc3)c3ccccc32)ccc1Cl` [Example 290] has a Ki of 55 nM.
Compound `O=C1/C(=N\c2ccc3ncccc3c2)c2ccccc2N1c1ccsc1` [Example 291, (3Z)-3-(6-QUINOLINYLIMINO)-1-(3-THIENYL)-1,3-DIHYDRO-2H-INDOL-2-ONE] has a Ki of 271 nM.
`O=C1C(=Nc2ccc(Cl)cc2)c2ccccc2N1c1ccsc1` [Example 292, (3Z)-3-[(4-CHLOROPHENTYL)IMINO]-1-(3-THIENYL)-1,3-DIHYDRO-2H-INDOL-2-ONE] was tested, and the Ki was 34 nM.
`CC(C)c1cccc(/N=C2\C(=O)N(c3ccsc3)c3ccccc32)c1` [Example 295, (3Z)-3-[(3-ISOPROPYLPHENYL)IMINO]-1-(3-THIENYL)-1,3-DIHYDRO-2H-INDOL-2-ONE] gave a Ki of 242 nM.
`O=C1/C(=N\c2ccc(C3CCCCC3)cc2)c2ccccc2N1c1ccsc1` [Example 296, (3Z)-3-[(4-CYCLOHEXYLPHENYL)IMINO]-1-(3-THIENYL)-1,3-DIHYDRO-2H-INDOL-2-ONE] showed a Ki of 82 nM.
`N#CCc1ccc(/N=C2\C(=O)N(c3ccccc3)c3ccccc32)cc1` [Example 297, (4-{[(3Z)-2-OXO-1-PHENYL-1,2-DIHYDRO-3H-INDOL-3-YLIDENE]AMINO}PHENYL)ACETONITRILE] gave a Ki of 226 nM.
`O=C1/C(=N\c2ccc3c(c2)OC(F)(F)O3)c2ccccc2N1c1ccccc1` [Example 298, (3Z)-3-[(2,2-DIFLUORO-1,3-BENZODIOXOL-5-YL)IMINO]-1-PHENYL-1,3-DIHYDRO-2H-INDOL-2-ONE] gave a Ki of 22 nM.
Work on `O=C1/C(=N\c2ccc3ncsc3c2)c2ccccc2N1c1ccccc1` [Example 299, (3Z)-3-(1,3-BENZOTHIAZOL-6-YLIMINO)-1-PHENYL-1,3-DIHYDRO-2H-INDOL-2-ONE] yielded a Ki of 377 nM.
With `O=C1/C(=N\c2cccc(C(F)(F)F)c2)c2ccccc2N1C1CCOCC1` [Example 300, (3Z)-1-TETRAHYDRO-2H-PYRAN-4-YL-3-{[3-(TRIFLUOROMETHYL)PHENYL]IMINO}-1,3-DIHYDRO-2H-INDOL-2-ONE] the Ki was 742 nM.
`O=C1/C(=N\c2ccc3cn[nH]c3c2)c2ccccc2N1c1ccccc1` [Example 301, (3Z)-3-(1H-INDAZOL-6-YLIMINO)-1-PHENYL-1,3-DIHYDRO-2H-INDOL-2-ONE] gave a Ki of 875 nM.
With `COc1ccc2c(c1)N(c1ccccc1)C(=O)/C2=N\c1cccc(Cl)c1` [Example 302, (3Z)-3-[(3-CHLOROPHENYL)IMINO]-6-METHOXY-1-PHENYL-1,3-DIHYDRO-2H-INDOL-2-ONE] the Ki was 150 nM.
In the case of `COc1ccc2c(c1)N(c1ccccc1)C(=O)/C2=N\c1cccc(C(F)(F)F)c1` [Example 303, (3Z)-6-METHOXY-1-PHENYL-3-{[3-(TRIFLUOROMETHYL)PHENYL]IMINO}-1,3-DIHYDRO-2H-INDOL-2-ONE], the Ki is reported as 214 nM.
`O=C1/C(=N\c2ccc(-c3ccsc3)cc2)c2ccccc2N1c1ccccc1` [Example 304, (3Z)-1-PHENYL-3-{[4-(3-THIENYL)PHENYL]IMINO}-1,3-DIHYDRO-2H-INDOL-2-ONE] gave a Ki of 728 nM.
In the case of `O=C1/C(=N\c2ccc(-c3cccnc3)cc2)c2ccccc2N1c1ccccc1` [Example 306], the Ki is reported as 160 nM.
`O=C1/C(=N\c2cccc(Br)c2)c2ccccc2N1c1ccccc1` [Example 307, (3Z)-3-[(3-BROMOPHENYL)IMINO]-1-PHENYL-1,3-DIHYDRO-2H-INDOL-2-ONE] was tested, and the Ki was 41 nM.
Work on `O=C1/C(=N\c2cccc(C(F)(F)F)c2)c2cc(-c3ccccc3)ccc2N1c1ccccc1` [Example 308] yielded a Ki of 98 nM.
For `O=C1/C(=N\c2cccc(C(F)(F)F)c2)c2ccccc2N1c1ccc(-c2ccccc2)cc1` [Example 309, (3Z)-1-[1,1'-BIPHENYL]-4-YL-3-{[3-(TRIFLUOROMETHYL)PHENYL]IMINO}-1,3-DIHYDRO-2H-INDOL-2-ONE], the Ki was 224 nM.
With `O=C1/C(=N\c2cccc(C(F)(F)F)c2)c2ccccc2N1c1ccc(O)cc1` [Example 310, (3Z)-1-(4-HYDROXYPHENYL)-3-{[3-(TRIFLUOROMETHYL)PHENYL]IMINO}-1,3-DIHYDRO-2H-INDOL-2-ONE] the Ki was 126 nM.
`O=C1/C(=N\c2ccc(Cl)c(Cl)c2)c2ccccc2N1Cc1cccnc1` [Example 311] showed a Ki of 32 nM.
